In ChEMBL document CHEMBL1201862, “PubChem BioAssay data set” (2004):
Blank lines part the entries; values can stand above or below the compound they belong to. The source made the active and inactive calls.

Tests used:
[1] = molecular target: T1, Peroxisome proliferator-activated receptor gamma (Homo sapiens, UniProt P37231); assay: PPARg ligand-binding domain binders, dose response, PPARg partial agonist project, biochemical, TR-FRET, LanthaScreen (AID 504446)
T1 sequence (P37231 whole entry): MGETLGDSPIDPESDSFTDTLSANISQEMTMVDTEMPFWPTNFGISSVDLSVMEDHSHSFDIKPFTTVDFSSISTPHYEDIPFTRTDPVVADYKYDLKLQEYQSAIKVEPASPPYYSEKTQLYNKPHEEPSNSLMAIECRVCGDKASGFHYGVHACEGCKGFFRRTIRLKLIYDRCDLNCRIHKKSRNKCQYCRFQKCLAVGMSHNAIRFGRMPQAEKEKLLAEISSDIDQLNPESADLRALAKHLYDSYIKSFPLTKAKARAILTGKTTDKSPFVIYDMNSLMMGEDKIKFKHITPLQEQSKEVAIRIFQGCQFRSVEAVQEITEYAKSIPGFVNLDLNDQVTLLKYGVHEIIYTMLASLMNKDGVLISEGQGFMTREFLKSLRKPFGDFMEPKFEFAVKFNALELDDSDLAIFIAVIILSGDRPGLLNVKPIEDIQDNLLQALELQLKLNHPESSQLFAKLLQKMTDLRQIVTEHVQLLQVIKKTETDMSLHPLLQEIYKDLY

[2] = molecular target: T1, Peroxisome proliferator-activated receptor gamma; assay: PPARg ligand-binding domain binders, dose response, PPARg partial agonist project, biochemical, fluorescence polarization, PolarScreen (AID 504453)
[3] = molecular target: T1, Peroxisome proliferator-activated receptor gamma; assay: PPARg partial agonists, dose response, cell-based, luminescence, assay provider (AID 504447); format: functional
[4] = molecular target: T2, RNA-binding protein pos-1 (Caenorhabditis elegans, UniProt G5EF15); assay: inhibitors of POS-1/mex-3 RNA binding, dose response, biochemical, fluorescence polarization (AID 1964);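 further: purified POS-1 fused to maltose binding protein made in E. coli; potency of compounds blocking POS-1 binding to fluorescent RNA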
T2 sequence (G5EF15 whole entry): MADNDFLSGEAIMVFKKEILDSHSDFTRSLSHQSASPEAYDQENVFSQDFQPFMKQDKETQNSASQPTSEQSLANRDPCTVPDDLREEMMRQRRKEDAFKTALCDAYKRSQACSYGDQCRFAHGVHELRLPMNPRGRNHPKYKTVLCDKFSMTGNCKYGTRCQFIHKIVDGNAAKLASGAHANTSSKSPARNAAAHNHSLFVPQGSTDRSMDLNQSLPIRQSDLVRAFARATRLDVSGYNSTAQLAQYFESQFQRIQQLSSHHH

[5] = molecular target: T3, Zinc finger protein mex-5 (Caenorhabditis elegans, UniProt Q9XUB2); assay: MEX-5/TCR-2 RNA interaction inhibitors, dose response, biochemical, C. elegans, fluorescence polarization (AID 1960)
T3 sequence (Q9XUB2 whole entry): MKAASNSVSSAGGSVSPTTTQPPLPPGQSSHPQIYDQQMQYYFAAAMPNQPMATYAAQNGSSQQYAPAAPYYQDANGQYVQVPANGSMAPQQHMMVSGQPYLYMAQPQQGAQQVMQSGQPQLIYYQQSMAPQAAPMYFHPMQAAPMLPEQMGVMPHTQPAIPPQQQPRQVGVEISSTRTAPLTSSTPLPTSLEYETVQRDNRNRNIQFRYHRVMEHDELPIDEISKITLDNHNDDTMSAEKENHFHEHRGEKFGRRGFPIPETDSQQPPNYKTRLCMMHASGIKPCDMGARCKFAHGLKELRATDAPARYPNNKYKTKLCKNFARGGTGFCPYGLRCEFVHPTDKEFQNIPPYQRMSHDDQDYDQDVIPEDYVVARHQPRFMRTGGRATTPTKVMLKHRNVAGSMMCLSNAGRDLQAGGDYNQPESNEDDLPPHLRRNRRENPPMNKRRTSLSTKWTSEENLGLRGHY

Ion channel NompC = Ion channel NompC (Danio rerio, UniProt Q7T1G6); assay: Dose response cell-based high-throughput screening assay for agonists of the transient receptor potential channel N1 (TRPN1). [Related pubchem assays (depositor defined):AID1424, AID1448]; format: functional
Mucolipin-3 = Mucolipin-3 (Homo sapiens, UniProt Q8TDD5); assay: Fluorescence counterscreen assay for […] agonists: dose response cell-based high-throughput screening assay to identify agonists of the transient receptor potential channel ML3 (TRPML3). [Related pubchem assays: 1424, 1448 ]; format: functional
[6] = molecular target: T4, Corticotropin-releasing factor receptor 2/Corticotropin-releasing factor-binding protein (Homo sapiens, UniProt P24387+Q13324); assay: activators of CRF receptor 2 with binding protein – uHTS hits, confirmation (AID 602473); format: functional; settings: read-out: EC50_Mean
T4 sequence (Q13324 whole entry): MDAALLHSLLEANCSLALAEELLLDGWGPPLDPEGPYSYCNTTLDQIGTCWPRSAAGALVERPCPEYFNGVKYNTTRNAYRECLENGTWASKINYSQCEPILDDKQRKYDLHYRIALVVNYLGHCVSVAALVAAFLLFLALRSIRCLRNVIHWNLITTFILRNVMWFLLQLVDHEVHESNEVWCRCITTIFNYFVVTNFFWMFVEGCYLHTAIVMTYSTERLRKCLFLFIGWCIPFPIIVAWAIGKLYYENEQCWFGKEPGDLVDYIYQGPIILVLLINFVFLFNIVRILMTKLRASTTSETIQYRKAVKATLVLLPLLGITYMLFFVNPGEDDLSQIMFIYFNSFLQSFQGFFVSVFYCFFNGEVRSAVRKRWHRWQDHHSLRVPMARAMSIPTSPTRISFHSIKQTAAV
T4 sequence (P24387 whole entry): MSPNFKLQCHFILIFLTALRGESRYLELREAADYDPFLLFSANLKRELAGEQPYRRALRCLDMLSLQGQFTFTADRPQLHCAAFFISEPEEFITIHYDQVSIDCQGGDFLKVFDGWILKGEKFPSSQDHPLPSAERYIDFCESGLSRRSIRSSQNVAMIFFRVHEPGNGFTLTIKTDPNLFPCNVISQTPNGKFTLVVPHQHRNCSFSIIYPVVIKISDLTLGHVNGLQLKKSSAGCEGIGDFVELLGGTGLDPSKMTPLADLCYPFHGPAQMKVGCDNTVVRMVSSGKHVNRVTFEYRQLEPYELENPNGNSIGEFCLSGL

[7] = molecular target: T5, G-protein coupled receptor 35 (Homo sapiens, UniProt Q9HC97); assay: SAR analysis of Agonists of the GPR35 Receptor using an Image-Based Assay - Set 4. [Related pubchem assays (depositor defined):AID2013, AID2026]; format: functional
Cannabinoid receptor 1 [8] = molecular target: T6, Cannabinoid receptor 1 (Homo sapiens, UniProt P21554); assay: SAR analysis of agonists of the Cannabinoid Receptor 1 using an Image-Based Assay - Set 4. [Related pubchem assays (depositor defined):AID2013, AID2026]; format: functional
[9] = molecular target: T5, G-protein coupled receptor 35; assay: SAR analysis of Antagonists of the GPR35 Receptor using an Image-Based Assay - Set 6. [Related pubchem assays (depositor defined):AID2013, AID2026]; format: functional
Cannabinoid receptor 1 [10] = molecular target: T6, Cannabinoid receptor 1; assay: SAR analysis of antagonists of the Cannabinoid Receptor 1 using an Image-Based Assay - Set 4. [Related pubchem assays (depositor defined):AID2013, AID2026]; format: functional
[11] = molecular target: G-protein coupled receptor 55 (Homo sapiens, UniProt Q9Y2T6); assay: SAR Analysis of Selective Antagonists of GPR55 using an Image-Based Assay - Set 4. [Related pubchem assays (depositor defined):AID2013, AID2026]; format: functional;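 further: antagonism of response to 5 µM lysophosphatidylinositol agonist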
Cannabinoid receptor 2 [12] = molecular target: T7, Cannabinoid receptor 2 (Homo sapiens, UniProt P34972); assay: SAR analysis of antagonists of the Cannabinoid Receptor 2 using an Image-Based Assay - Set 3. [Related pubchem assays (depositor defined):AID2013, AID2026]; format: functional
Cannabinoid receptor 2 [13] = molecular target: T7, Cannabinoid receptor 2; assay: SAR analysis of agonists of the Cannabinoid Receptor 2 using an Image-Based Assay - Set 3. [Related pubchem assays (depositor defined):AID2013, AID2026]; format: functional
[14] = molecular target: T8, Kappa-type opioid receptor (Homo sapiens, UniProt P41145); assay: SAR analysis of small molecule agonists of the kappa opioid receptor via a luminescent beta-arrestin assay. [Related pubchem assays (depositor defined):AID1777, AID1786, AID1966, AID2133, AID2136, AID2348, AID2352, AID2357, AID2359, AID2370, AID2420, AID2478, AID2491, AID2492, AID2493, AID2497, AID2498, AID2500, AID449737, AID488822, AID488842]; format: functional
Mu-type opioid receptor [15] = molecular target: T9, Mu-type opioid receptor (Homo sapiens, UniProt P35372); assay: MOR agonists by imaging, SAR follow-up, image-based (AID 2352); format: functional
[16] = molecular target: T10, Delta-type opioid receptor (Homo sapiens, UniProt P41143); assay: DOR agonists, SAR follow-up, image-based (AID 2370); format: functional
[17] = molecular target: T8, Kappa-type opioid receptor; assay: KOR antagonists by imaging, SAR follow-up, image-based (AID 2348); format: functional
Mu-type opioid receptor [18] = molecular target: T9, Mu-type opioid receptor; assay: MOR antagonists, SAR follow-up, image-based (AID 2420); format: functional;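 further: compounds added before stimulation of receptor with agonist DAMGO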
[19] = molecular target: T10, Delta-type opioid receptor; assay: DOR antagonists, SAR follow-up, image-based (AID 2357); format: functional

T9 sequence (P35372 whole entry): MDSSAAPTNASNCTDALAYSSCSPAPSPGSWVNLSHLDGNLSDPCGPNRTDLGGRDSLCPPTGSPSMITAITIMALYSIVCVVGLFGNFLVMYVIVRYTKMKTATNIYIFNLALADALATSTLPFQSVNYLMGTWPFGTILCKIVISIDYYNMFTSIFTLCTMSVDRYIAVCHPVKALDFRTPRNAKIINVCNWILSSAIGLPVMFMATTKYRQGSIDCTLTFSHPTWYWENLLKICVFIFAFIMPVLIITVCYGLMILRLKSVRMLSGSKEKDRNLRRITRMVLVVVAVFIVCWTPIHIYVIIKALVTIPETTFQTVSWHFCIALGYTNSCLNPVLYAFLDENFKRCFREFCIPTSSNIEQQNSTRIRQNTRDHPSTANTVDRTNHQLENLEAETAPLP
T8 sequence (P41145 whole entry): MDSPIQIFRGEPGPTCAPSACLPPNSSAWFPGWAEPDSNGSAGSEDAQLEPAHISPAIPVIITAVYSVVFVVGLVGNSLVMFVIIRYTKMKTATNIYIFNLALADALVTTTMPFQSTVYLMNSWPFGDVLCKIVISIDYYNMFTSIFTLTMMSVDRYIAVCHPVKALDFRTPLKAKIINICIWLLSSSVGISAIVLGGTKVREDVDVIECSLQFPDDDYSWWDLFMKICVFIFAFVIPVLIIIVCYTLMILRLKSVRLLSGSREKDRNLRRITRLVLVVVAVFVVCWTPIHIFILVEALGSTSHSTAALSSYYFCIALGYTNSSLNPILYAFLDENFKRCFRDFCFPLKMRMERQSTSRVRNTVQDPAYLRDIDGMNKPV
T5 sequence (Q9HC97 whole entry): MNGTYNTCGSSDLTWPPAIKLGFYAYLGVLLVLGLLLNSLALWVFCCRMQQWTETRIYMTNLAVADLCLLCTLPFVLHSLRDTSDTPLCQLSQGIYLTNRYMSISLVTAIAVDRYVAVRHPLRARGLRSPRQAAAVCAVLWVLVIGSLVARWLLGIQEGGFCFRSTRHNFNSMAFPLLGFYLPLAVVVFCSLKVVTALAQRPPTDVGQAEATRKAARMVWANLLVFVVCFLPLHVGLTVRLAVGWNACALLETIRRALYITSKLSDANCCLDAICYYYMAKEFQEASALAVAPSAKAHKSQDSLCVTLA
T6 sequence (P21554 whole entry): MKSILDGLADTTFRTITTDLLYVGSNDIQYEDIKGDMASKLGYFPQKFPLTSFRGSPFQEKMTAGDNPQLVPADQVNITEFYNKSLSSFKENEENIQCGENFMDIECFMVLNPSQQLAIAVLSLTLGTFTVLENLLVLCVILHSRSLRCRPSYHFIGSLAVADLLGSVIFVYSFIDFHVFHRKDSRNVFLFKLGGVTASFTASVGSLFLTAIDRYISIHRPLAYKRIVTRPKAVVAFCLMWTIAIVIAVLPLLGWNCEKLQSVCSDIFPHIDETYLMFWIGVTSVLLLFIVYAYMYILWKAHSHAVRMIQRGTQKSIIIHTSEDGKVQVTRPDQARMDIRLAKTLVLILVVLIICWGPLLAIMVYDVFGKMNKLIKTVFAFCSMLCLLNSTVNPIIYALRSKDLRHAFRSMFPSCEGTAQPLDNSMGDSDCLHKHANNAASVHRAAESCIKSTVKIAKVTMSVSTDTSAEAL
T7 sequence (P34972 whole entry): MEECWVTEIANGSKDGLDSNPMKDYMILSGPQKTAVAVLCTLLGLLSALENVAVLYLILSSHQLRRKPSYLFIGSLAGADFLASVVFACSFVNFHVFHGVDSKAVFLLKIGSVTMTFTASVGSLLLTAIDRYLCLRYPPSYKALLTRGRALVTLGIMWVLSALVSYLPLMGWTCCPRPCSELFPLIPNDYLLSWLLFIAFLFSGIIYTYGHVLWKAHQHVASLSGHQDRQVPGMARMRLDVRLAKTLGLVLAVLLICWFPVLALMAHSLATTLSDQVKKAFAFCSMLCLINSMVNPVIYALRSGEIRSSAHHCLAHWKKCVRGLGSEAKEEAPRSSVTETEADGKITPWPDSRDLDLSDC
T10 sequence (P41143 whole entry): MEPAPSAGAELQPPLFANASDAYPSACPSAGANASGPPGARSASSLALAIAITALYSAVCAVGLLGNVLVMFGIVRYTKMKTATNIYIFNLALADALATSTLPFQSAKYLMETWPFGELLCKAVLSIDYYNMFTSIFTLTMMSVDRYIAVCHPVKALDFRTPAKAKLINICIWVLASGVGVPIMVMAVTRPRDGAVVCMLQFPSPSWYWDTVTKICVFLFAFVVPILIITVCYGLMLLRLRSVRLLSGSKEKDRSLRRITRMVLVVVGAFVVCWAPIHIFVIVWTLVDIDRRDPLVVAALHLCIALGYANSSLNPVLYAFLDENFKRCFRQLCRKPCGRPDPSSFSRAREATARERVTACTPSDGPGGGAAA
Sequence of G-protein coupled receptor 55 (Q9Y2T6 whole entry): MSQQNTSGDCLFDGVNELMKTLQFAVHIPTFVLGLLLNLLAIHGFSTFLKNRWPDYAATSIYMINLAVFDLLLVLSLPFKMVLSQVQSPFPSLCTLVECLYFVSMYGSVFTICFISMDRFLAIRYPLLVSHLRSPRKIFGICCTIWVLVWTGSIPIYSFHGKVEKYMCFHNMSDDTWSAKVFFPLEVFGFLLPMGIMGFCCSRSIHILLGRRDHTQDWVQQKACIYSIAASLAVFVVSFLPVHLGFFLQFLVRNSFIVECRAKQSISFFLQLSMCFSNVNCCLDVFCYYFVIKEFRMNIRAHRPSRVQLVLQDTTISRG
Sequence of Mucolipin-3 (Q8TDD5 whole entry): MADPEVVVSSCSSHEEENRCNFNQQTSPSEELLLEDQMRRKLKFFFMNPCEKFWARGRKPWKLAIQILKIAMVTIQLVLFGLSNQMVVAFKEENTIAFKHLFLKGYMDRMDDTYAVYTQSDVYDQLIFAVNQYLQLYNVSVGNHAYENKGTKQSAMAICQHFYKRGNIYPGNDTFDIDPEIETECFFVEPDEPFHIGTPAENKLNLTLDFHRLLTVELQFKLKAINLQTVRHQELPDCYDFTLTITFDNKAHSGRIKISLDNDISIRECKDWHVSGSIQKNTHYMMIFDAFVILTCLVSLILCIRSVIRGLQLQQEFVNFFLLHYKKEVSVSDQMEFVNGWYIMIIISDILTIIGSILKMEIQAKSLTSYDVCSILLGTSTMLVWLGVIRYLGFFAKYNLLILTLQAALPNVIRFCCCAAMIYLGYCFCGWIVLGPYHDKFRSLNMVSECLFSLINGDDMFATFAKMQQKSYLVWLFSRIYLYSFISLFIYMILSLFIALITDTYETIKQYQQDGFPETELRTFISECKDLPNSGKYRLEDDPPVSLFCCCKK
Sequence of Ion channel NompC (Q7T1G6 whole entry): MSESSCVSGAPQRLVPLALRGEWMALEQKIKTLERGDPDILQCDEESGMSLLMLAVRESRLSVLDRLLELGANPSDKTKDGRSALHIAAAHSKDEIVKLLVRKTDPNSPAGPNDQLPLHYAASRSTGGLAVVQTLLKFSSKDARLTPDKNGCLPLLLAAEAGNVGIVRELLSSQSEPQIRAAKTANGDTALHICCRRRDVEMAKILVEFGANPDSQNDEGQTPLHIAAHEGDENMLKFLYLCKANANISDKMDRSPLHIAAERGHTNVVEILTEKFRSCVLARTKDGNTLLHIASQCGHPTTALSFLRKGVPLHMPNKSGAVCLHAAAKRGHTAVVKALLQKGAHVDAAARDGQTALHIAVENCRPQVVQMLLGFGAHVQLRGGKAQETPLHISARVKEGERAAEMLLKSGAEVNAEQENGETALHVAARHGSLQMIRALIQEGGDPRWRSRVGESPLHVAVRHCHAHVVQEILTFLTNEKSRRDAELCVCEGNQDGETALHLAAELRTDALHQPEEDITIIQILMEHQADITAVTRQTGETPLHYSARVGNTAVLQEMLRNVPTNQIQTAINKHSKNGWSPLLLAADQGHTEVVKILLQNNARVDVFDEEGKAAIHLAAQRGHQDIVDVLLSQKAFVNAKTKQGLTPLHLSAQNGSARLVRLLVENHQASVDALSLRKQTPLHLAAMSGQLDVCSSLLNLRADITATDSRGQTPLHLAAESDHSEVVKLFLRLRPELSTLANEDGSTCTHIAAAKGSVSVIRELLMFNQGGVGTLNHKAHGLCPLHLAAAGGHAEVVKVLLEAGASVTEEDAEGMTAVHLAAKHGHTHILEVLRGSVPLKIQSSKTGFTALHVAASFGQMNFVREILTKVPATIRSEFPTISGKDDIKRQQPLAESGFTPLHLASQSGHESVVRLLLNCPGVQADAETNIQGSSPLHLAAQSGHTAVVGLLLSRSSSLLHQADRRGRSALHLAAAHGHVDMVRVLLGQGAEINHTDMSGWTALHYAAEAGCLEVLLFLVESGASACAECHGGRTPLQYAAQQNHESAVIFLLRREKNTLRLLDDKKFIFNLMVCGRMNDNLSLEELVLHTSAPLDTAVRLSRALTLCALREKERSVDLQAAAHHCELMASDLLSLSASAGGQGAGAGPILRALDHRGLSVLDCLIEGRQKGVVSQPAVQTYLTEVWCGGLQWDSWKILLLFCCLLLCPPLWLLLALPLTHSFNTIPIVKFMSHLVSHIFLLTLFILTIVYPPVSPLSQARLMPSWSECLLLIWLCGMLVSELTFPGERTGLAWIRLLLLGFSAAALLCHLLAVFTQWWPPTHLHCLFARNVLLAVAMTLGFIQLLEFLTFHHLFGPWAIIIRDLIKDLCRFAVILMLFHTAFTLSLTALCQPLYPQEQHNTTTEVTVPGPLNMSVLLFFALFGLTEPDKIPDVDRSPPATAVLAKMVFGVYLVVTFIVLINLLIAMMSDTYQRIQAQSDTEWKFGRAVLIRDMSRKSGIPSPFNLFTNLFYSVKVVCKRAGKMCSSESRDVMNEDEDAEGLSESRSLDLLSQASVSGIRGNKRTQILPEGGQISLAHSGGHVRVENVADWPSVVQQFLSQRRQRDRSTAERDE

IC50 [1]: 1.2 µM (active) | IC50 [2]: 5 µM (active) | EC50 [3]: 5 µM (active)
Structure (SMILES): COc1ccc2nc(N3C(=O)C(O)=C(C(=O)c4ccco4)C3c3ccc(C)o3)sc2c1 (stereo unspecified)

EC50 [4]: > 300 µM (not active) | EC50 [5]: 74.2 µM (inconclusive) | EC50 (Ion channel NompC): > 9.97 µM (inactive) | EC50 (Mucolipin-3): > 9.97 µM (not active) | EC50 [6]: 9.14 µM (active)
Structure (SMILES): Nc1c(C(=O)c2ccc(Cl)cc2)sc2nsc(SCCN3CCOCC3)c12

EC50 [7]: > 32 µM (inactive) | EC50 (Cannabinoid receptor 1 [8]): > 32 µM (inactive) | IC50 [9]: > 32 µM (inactive) | IC50 (Cannabinoid receptor 1 [10]): > 32 µM (inactive) | IC50 [11]: > 32 µM (inactive) | IC50 (Cannabinoid receptor 2 [12]): > 32 µM (inactive) | EC50 (Cannabinoid receptor 2 [13]): 3.61 µM (active)
Structure (SMILES): N=c1c(C(=O)NCCc2ccccc2)cc2c(=O)n3ccccc3nc2n1C1CCCC1

EC50 [14]: > 10 µM (inactive) | EC50 (Mu-type opioid receptor [15]): > 32 µM (inactive) | EC50 [16]: > 32 µM (inactive) | IC50 [17]: > 32 µM (inactive) | IC50 (Mu-type opioid receptor [18]): > 32 µM (inactive) | IC50 [19]: > 32 µM (inactive)
Structure (SMILES): COc1ccc(CN(Cc2ccccn2)C(=O)CN2C(=O)COc3ccccc32)cc1
